Experimental data as given in PubChem BioAssay (NCI).
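Step 1: Grow cells in 96-well plates. Step 2: Expose to compound for 48 hours at 5 concentrations. Step 3: Interpolate endpoints linearly; if unreached, use highest concentration. TGI marks complete inhibition of growth.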 Where a SMILES comes first, the peptide text is derived from it. [ ]: non-standard residue; d: D form. The star is where a group is joined. ξ: configuration not given here. ξNMeF = CNC(Cc1ccccc1)C(=O)O; NMeV = CN[C@H](C(=O)O)C(C)C; Boc = CC(C)(C)OC(=O)*; OBn = c1ccc(CO*)cc1

How the values were obtained:
Experiment in all cases: DTP human tumour cell line panel, 48 h
[1] = test system: LXFL 529 NSCLC
[2] = test system: HT29 colon
[3] = test system: OVCAR-3 ovarian
[4] = test system: M19-MEL melanoma
[5] = test system: DLD-1 colon
[6] = test system: SNB-78 CNS
[7] = test system: HOP-18 NSCLC
[8] = test system: NCI/ADR-RES ovarian
[9] = test system: SK-MEL-2 melanoma
[10] = test system: XF 498 CNS
[11] = test system: NCI-H226 lung
[12] = test system: SNB-75 CNS
[13] = test system: MALME-3M melanoma
[14] = test system: RPMI-8226 leukemia
[15] = test system: COLO 205 colon

| Compound | TGI [1] [µM] | TGI [2] [µM] | TGI [3] [µM] | TGI [4] [µM] | TGI [5] [µM] | TGI [6] [µM] | TGI [7] [µM] | TGI [8] [µM] | TGI [9] [µM] | TGI [10] [µM] | TGI [11] [µM] | TGI [12] [µM] | TGI [13] [µM] | TGI [14] [µM] | TGI [15] [µM] |
| --- | --- | --- | --- | --- | --- | --- | --- | --- | --- | --- | --- | --- | --- | --- | --- |
| CN(C)[C@@H]1C(=O)C(C(=O)NCNc2nc3n[nH]nc3c(=O)[nH]2)=C(O)[C@@]2(O)C(=O)C3=C(O)c4c(O)cccc4[C@@](C)(O)[C@H]3C[C@@H]12 | > 100 | > 100 | > 74.2 | 15 | > 77.8 | > 100 | > 100 | > 100 | 3.09 | > 26.9 | 56.9 | > 95.8 | 13.1 | 6.7 | 57.4 |
| CC(C)[C@@H](C(=O)N(C)[C@H](C(=O)N1CCC[C@H]1C(=O)OCc1ccccc1)C(C)C)N(C)C(=O)C(Cc1ccccc1)N(C)C(=O)[C@H](NC(=O)OC(C)(C)C)C(C)C (stereo partly drawn) (Boc-[dV][ξNMeF][NMeV][NMeV]P-OBn) | > 100 | > 31.6 | > 67.2 | > 31.6 | > 31.6 | > 31.6 | > 100 | – | > 31.6 | 27.9 | > 100 | > 100 | > 100 | > 31.6 | > 100 |
| CCN(CC)CCNc1ccc2ncn3c4ccc(OC)cc4c(=O)c1c23 | 20 | 8.14 | 24.2 | 20.4 | 20 | 30.9 | 62 | 16.1 | 25.4 | 25.1 | 13.7 | 20.8 | 25.1 | – | 15.5 |
